Where “and” joins values, the source holds several entries; their conditions need not be identical. Equal entries are not always repeated.
What was measured:
[1] = tested on: T. cruzi (Tulahuen strain) infective form (trypomastigote and amastigote life stages) co-cultured in NIH-3T3 fibroblasts; assay: T. cruzi infective form growth inhibition in NIH-3T3 fibroblasts; type: cell-based, Trypanosoma cruzi; conditions: Tulahuen strain infective form in NIH-3T3 fibroblasts; N = 3 (Amphotericin B control: 6 replicates)
Protocol: The curve and the IC50 were calculated from measurements determined in triplicate and expressed as percent growth inhibition of the T. cruzi parasite infection of mammalian cells.
Compounds were further screened against the T. cruzi (Tulahuen strain) infective form (trypomastigote and amastigote life stages) co-cultured in NIH-3T3 fibroblasts to establish IC50 values. Assays were performed in triplicate.
The single dose in vitro study included administration of the compounds in 80 μM inhibitor concentrations (N=3). Amphotericin B was used as a control.

[2] = molecular target: Trypanosoma cruzi glucokinase (TcGlcK) (Trypanosoma cruzi (strain CL Brener), UniProt Q4E4E1); type: biochemical; conditions: percentage of inhibition at 20 μM of the compound; N = 1
Sequence of Trypanosoma cruzi glucokinase (TcGlcK) (Q4E4E1 1-376): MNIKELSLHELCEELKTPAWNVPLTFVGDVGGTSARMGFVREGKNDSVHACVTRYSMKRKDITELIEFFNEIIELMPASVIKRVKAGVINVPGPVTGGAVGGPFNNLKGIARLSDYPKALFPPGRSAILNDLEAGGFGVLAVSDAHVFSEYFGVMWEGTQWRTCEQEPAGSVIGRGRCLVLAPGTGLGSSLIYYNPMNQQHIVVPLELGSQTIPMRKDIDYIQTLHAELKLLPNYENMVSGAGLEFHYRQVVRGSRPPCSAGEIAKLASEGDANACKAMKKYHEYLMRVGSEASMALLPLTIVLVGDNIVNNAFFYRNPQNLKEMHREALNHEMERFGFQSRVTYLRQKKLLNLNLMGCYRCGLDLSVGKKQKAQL
Protocol: D-Glucose was also tested as a control with alternative substrates. The protein expression work for TcGlcK and HsHxKIV were each made possible through the E. coli strain BL21(DE3) system. Purification of each enzyme was performed through cobalt-NTA chromatography followed by size-exclusion chromatography; assessment of purity was performed by SDS-PAGE. […] A general reaction scheme included a first reaction in which the monosaccharide, ATP, and Mg^2+ react with the enzyme, e.g., TcGlcK, forming a hexose-phosphate and ADP. In a second reaction, hexose-phosphate with the assistance of glucose-6-phosphate dehydrogenase (G6PDH) and NADP^+ was converted to the lactone form of the hexose-phosphate and NADPH. Fluorescence of NADPH was monitored using a fluorescence microplate reader with […] wavelengths of 340 nm and 485 nm, respectively.
Michaelis-Menten constant (KM) values, which were used as the set final assay concentrations of substrates D-glucose and ATP for the primary screens, were determined for both TcGlcK and HsHxKIV in triplicate runs. […]
The cutoff percentage was calculated by using normalized percent inhibition that took into consideration the positive and negative controls of the fluorescence readout from a fluorescence microplate reader. In addition, an unconfirmed hit was selected if the activity measurement was three standard deviations away from the mean of the positive controls.

[3] = tested on: glucose-6-phosphate dehydrogenase (G6PDH); assay: G6PDH confirmatory assay (coupling enzyme counter-screen); type: biochemical; conditions: 20 μM compound; quadruplicate
Protocol: The 16 compounds showing substantial inhibition against TcGlcK at compound concentrations of 20 μM were then examined in a confirmatory assay in which the amino sugar analogues were at a concentration of 20 μM and were tested against the assay's only coupling enzyme, G6PDH, to verify enzyme activity; the assay was performed in quadruplicate. […] These confirmed hits included representatives from all three monosaccharide scaffolds tested (i.e., D-GlcN, D-ManN, and D-GalN).

[4] = molecular target: Homo sapiens hexokinase IV (HsHxKIV) (Homo sapiens (Human), UniProt P35557); assay: HsHxKIV enzyme-inhibition screening assay (Example 1); type: biochemical; conditions: 20 μM compound; N = 1
Sequence of Homo sapiens hexokinase IV (HsHxKIV) (P35557 whole entry): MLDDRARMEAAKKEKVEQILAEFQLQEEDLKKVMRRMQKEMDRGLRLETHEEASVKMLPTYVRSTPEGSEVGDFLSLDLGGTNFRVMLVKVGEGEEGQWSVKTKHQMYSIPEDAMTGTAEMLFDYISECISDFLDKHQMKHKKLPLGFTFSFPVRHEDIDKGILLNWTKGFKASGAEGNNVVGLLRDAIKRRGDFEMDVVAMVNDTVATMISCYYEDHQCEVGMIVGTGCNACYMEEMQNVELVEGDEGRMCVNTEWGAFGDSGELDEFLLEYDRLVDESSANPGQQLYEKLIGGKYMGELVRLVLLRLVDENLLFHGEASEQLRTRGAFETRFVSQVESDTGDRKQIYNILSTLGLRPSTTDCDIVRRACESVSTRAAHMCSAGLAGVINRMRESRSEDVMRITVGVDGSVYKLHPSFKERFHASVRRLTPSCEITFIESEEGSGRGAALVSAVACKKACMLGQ
Protocol: D-Glucose was also tested as a control with alternative substrates. The protein expression work for TcGlcK and HsHxKIV were each made possible through the E. coli strain BL21(DE3) system. Purification of each enzyme was performed through cobalt-NTA chromatography followed by size-exclusion chromatography; assessment of purity was performed by SDS-PAGE. In enzymatic assays, a time-optimum (TOPT) was determined to be 120 seconds for TcGlcK and 600 seconds for HsHxKIV; all assays were run at room temperature. A general reaction scheme included a first reaction in which the monosaccharide, ATP, and Mg^2+ react with the enzyme, e.g., TcGlcK, forming a hexose-phosphate and ADP. In a second reaction, hexose-phosphate with the assistance of glucose-6-phosphate dehydrogenase (G6PDH) and NADP^+ was converted to the lactone form of the hexose-phosphate and NADPH. Fluorescence of NADPH was monitored using a fluorescence microplate reader with […] wavelengths of 340 nm and 485 nm, respectively.
FIG. 4 and FIG. 5 present typical Michaelis-Menten enzyme kinetic plots for D-glucose. As shown, the NADP^+ to NADPH turnover rate is a function of [D-glucose] & [ATP] for TcGlcK (FIG. 4) and HsHxKIV (FIG. 5) absent inhibition. Michaelis-Menten constant (KM) values, which were used as the set final assay concentrations of substrates D-glucose and ATP for the primary screens, were determined for both TcGlcK and HsHxKIV in triplicate runs. The KM values for TcGlcK with respect to D-glucose and ATP were 0.40 mM and 0.34 mM, respectively. The KM values for HsHxKIV with respect to D-glucose and ATP were 43 mM and 0.20 mM, respectively.

SMILES | IC50 [1] [µM] | TcGlcK Inh20 (%) [2] | G6PDH Inh20 (%) [3] [%] | HsHxKIV Inh20(%) [4] [%]
C[C@@H]1[C@H](O)[C@@H](C)/C=C/C=C/C=C/C=C/C=C/C=C/C=C/[C@H](O[C@@H]2O[C@H](C)[C@@H](O)[C@H](N)[C@@H]2O)C[C@@H]2O[C@](O)(C[C@@H](O)C[C@@H](O)[C@H](O)CC[C@@H](O)C[C@@H](O)CC(=O)O[C@H]1C)C[C@H](O)[C@H]2C(=O)O [Amphotericin B, reference compound] | 1.08 ± 0.84 |  |  | 
O=C(N[C@H]1C(O)O[C@H](CO)[C@@H](O)[C@@H]1O)c1cccc(Br)c1 (some centres unmarked) [Compound 2] | 66.2 ± 3.83 | 57% | 0.0 ± 0.0 | 31
O=C(N[C@H]1C(O)O[C@H](CO)[C@@H](O)[C@@H]1O)c1ccc(CCl)cc1 (some centres unmarked) [Compound 3] | 52.9 ± 2.72 | 42% | 0.0 ± 0.0 | 35
O=C(N[C@H]1C(O)O[C@H](CO)C(O)[C@@H]1O)c1ccoc1 (some centres unmarked) [Compound 6] | 49.9 ± 2.99 | 51% | 0.0 ± 0.0 | 41
O=C(N[C@@H]1C(O)O[C@H](CO)[C@@H](O)[C@@H]1O)c1ccccc1 (some centres unmarked) [Compound 7] | 43.5 ± 0.68 | 71% | 0.0 ± 0.0 | 55
O=C(N[C@@H]1C(O)O[C@H](CO)[C@@H](O)[C@@H]1O)c1cccc(Br)c1 (some centres unmarked) [Compound 8] | 38.4 ± 1.4 | 35% | 0.0 ± 0.0 | 27
O=C(N[C@@H]1C(O)O[C@H](CO)[C@@H](O)[C@@H]1O)c1ccc(CCl)cc1 (some centres unmarked) [Compound 9] | 38.4 ± 1.41 | 33% | 0.0 ± 0.0 | 28
O=C(N[C@@H]1C(O)O[C@H](CO)[C@@H](O)[C@@H]1O)c1cc2ccccc2o1 (some centres unmarked) [Compound 11] | 42.5 ± 6.5 | 10% |  | 12
O=C(N[C@@H]1C(O)O[C@H](CO)[C@@H](O)[C@@H]1O)c1ccoc1 (some centres unmarked) [Compound 12] | 67.5 ± 1.75 | 58% | 0.0 ± 0.0 | 32
O=C(N[C@H]1C(O)O[C@H](CO)[C@H](O)[C@@H]1O)c1ccccc1 (some centres unmarked) [Compound 13] | 55.3 ± 11.9 | 59% | 0.0 ± 0.0 | 38
O=C(N[C@H]1C(O)O[C@H](CO)[C@H](O)[C@@H]1O)c1cccc(Br)c1 (some centres unmarked) [Compound 14] | 19.9 | 31% and 30.8% | 0.0 ± 0.0 | 30
O=C(N[C@H]1C(O)O[C@H](CO)[C@H](O)[C@@H]1O)c1ccc(CCl)cc1 (some centres unmarked) [Compound 15] | 37.9 ± 4.77 | 27% |  | 8
Cc1ccc(C(=O)N[C@H]2C(O)O[C@H](CO)[C@H](O)[C@@H]2O)o1 (some centres unmarked) [Compound 16] | 20.2 | 30% | 0.0 ± 0.0 | 41

Source: patent publication US11059842B2, “Monosaccharide amine and 3-nitro-2-phenyl-2H-chromene based inhibitors of glucose kinases” (UNIVERSITY OF SOUTH CAROLINA, priority 2019, dated 2021)
